Results taken from ChEMBL document CHEMBL1201862, “PubChem BioAssay data set” (2004).
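Grown in 96-well plates, cells were treated for 48 hours with each compound at five concentrations. Insufficient inhibition: endpoint recorded as highest concentration tested. GI50 marks 50% less growth.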 Calls of active or inactive are those of the source. No stated cut-off is given here; in the data, active = GI50 up to about 1.1 µM and inactive = higher.

Legend:
Test in all cases: NCI anticancer screen, dose series, 48 h
[1] = tested on: 786-0
[2] = tested on: A498
[3] = tested on: A549
[4] = tested on: ACHN
[5] = tested on: BT-549
[6] = tested on: CAKI-1
[7] = tested on: CCRF-CEM
[8] = tested on: COLO 205
[9] = tested on: DU-145
[10] = tested on: EKVX
[11] = tested on: HCC 2998
[12] = tested on: HCT-116
[13] = tested on: HCT-15
[14] = tested on: HL-60
[15] = tested on: HOP-62
[16] = tested on: HOP-92
[17] = tested on: HT-29
[18] = tested on: Hs-578T
[19] = tested on: IGROV-1
[20] = tested on: K562
[21] = tested on: KM12
[22] = tested on: LOX IMVI
[23] = tested on: M14
[24] = tested on: MCF7
[25] = tested on: MDA-MB-231
[26] = tested on: MDA-MB-435
[27] = tested on: MDA-N
[28] = tested on: MOLT-4
[29] = tested on: Malme-3M
[30] = tested on: NCI-H226
[31] = tested on: NCI-H23
[32] = tested on: NCI-H460
[33] = tested on: NCI-H522
[34] = tested on: NCI/ADR-RES
[35] = tested on: OVCAR-4
[36] = tested on: OVCAR-5
[37] = tested on: OVCAR-8
[38] = tested on: PC-3
[39] = tested on: RPMI-8226
[40] = tested on: RXF 393
[41] = tested on: SF-268
[42] = tested on: SF-295
[43] = tested on: SF-539
[44] = tested on: SK-MEL-28
[45] = tested on: SK-MEL-2
[46] = tested on: SK-MEL-5
[47] = tested on: SK-OV-3
[48] = tested on: SN12C
[49] = tested on: SNB-19
[50] = tested on: SNB-75
[51] = tested on: SR
[52] = tested on: SW-620
[53] = tested on: T47D
[54] = tested on: TK-10
[55] = tested on: U-251
[56] = tested on: UACC-257
[57] = tested on: UACC-62
[58] = tested on: UO-31

With `Cc1[nH]c(-c2ccccc2)c2nc(N(C)C)oc(=O)c12` the GI50 [1] was > 100 µM (inactive), the GI50 [2] was > 100 µM (inactive) and the GI50 [3] was > 100 µM (inactive). For the same molecule, the GI50 [4] was > 100 µM (inactive), the GI50 [5] was > 100 µM (inactive) and the GI50 [6] was 0.212 µM (active). For the same molecule, the GI50 [7] was > 100 µM (inactive), the GI50 [8] was > 100 µM (inactive) and the GI50 [9] was > 100 µM (inactive). For the same molecule, the GI50 [10] was > 100 µM (inactive), the GI50 [11] was > 100 µM (inactive) and the GI50 [12] was > 100 µM (inactive). For the same molecule, the GI50 [13] was over 100 µM, the GI50 [14] was > 100 µM (inactive) and the GI50 [15] was > 100 µM (inactive). The GI50 [16] was > 100 µM (inactive), the GI50 [17] was > 100 µM (inactive) and the GI50 [18] was > 100 µM (inactive). The GI50 [19] was > 100 µM (inactive), the GI50 [20] was > 100 µM (inactive) and the GI50 [21] was > 100 µM (inactive). For the same molecule, the GI50 [22] was > 100 µM (inactive), the GI50 [23] was > 100 µM (inactive) and the GI50 [24] was > 100 µM (inactive). For the same molecule, the GI50 [25] was > 100 µM (inactive), the GI50 [26] was > 100 µM (inactive) and the GI50 [27] was > 100 µM (inactive). For the same molecule, the GI50 [28] was > 100 µM (inactive), the GI50 [29] was > 100 µM (inactive) and the GI50 [30] was > 100 µM (inactive). For the same molecule, the GI50 [31] was > 100 µM (inactive), the GI50 [32] was > 100 µM (inactive) and the GI50 [33] was > 100 µM (inactive). The GI50 [34] was > 100 µM (inactive), the GI50 [35] was > 100 µM (inactive) and the GI50 [36] was > 100 µM (inactive). For the same molecule, the GI50 [37] was > 100 µM (inactive), the GI50 [38] was > 100 µM (inactive) and the GI50 [39] was > 100 µM (inactive). For the same molecule, the GI50 [40] was > 100 µM (inactive), the GI50 [41] was > 100 µM (inactive) and the GI50 [42] was > 100 µM (inactive). For the same molecule, the GI50 [43] was > 100 µM (inactive), the GI50 [44] was > 100 µM (inactive) and the GI50 [45] was > 100 µM (inactive). For the same molecule, the GI50 [46] was > 100 µM (inactive), the GI50 [47] was > 100 µM (inactive) and the GI50 [48] was > 100 µM (inactive). For the same molecule, the GI50 [49] was > 100 µM (inactive), the GI50 [50] was > 100 µM (inactive) and the GI50 [51] was > 100 µM (inactive). The GI50 [52] was > 100 µM (inactive), the GI50 [53] was > 100 µM (inactive) and the GI50 [54] was > 100 µM (inactive). For the same molecule, the GI50 [55] was > 100 µM (inactive), the GI50 [56] was > 100 µM (inactive) and the GI50 [57] was > 100 µM (inactive). For the same molecule, the GI50 [58] was > 100 µM (inactive).
